Tests used:
[1] = molecular target: T1, GppNHp-loaded KRAS4b (amino acids 1-169) G12C/C118S protein (Homo sapiens, UniProt P01116, C118S/G12C); experiment: Covalent cysteine 12 modification by MALDI-TOF MS, GppNHp-loaded KRAS G12C; assay type: binding; settings: 15 minutes reaction time point
T1 construct: KRAS4b (amino acids 1-169) G12C/C118S protein; made in house
Outline: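 Protein (1 μM) was incubated with compound at a 1:2.5 protein:compound ratio in 20 mM HEPES, 150 mM NaCl, 1 mM MgCl2, pH 7.3, at room temperature in the dark. After 15 min, samples were mixed into sinapinic acid matrix and analysed by linear-mode MALDI-TOF. Modification is adduct peak height over summed unmodified plus adduct heights.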

[2] = tested on: pERK in NCI-H358 cells; experiment: Cell-based pERK HTRF assay (pERK inhibition in H358 cells); settings: 30 min incubation
Outline: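 NCI-H358 cells were seeded at 4×10^4 cells/well in RPMI/10% FBS, then treated next day for 30 min at 0.25% DMSO (9-point, 3-fold series from 75 μM). Lysates were read by HTRF (d2/Eu cryptate antibody pair, 615 nm emission) after 4–24 h at room temperature to give pERK IC50.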

| Structure (SMILES) | GppNHp-KRAS G12C percent of modification [1] | IC50 [2] | IC50 ([2]; Homo sapiens, NCI-H358, 0.5 h) |
| --- | --- | --- | --- |
| C=CC(=O)N1CC[C@@H](N(C)c2nc(OC[C@@H]3CCCN3C)nc3c(F)c(-c4ccc(F)c5sc(N)c(C#N)c45)c(Cl)cc23)[C@H]1C (atropisomer, axis not shown) [Compound 119] | D (percent of modification <10%) | > 1000 nM |  |
| C=CC(=O)N1C[C@H](C)N(c2nc(OC[C@@]34CCCN3C[C@H](F)C4)nc3c(F)c(-c4ccc(F)c5sc(N)c(C#N)c45)c(Cl)cc23)C[C@H]1C (atropisomer, axis not shown) [Compound 103] | D (percent of modification <10%) | 100 to 1000 nM |  |
| C=CC(=O)N1CCC(N(CC)c2nc(OC[C@@]34CCCN3C[C@H](F)C4)nc3c(F)c(-c4ccc(F)c5sc(N)c(C#N)c45)ccc23)[C@H]1CC (stereo partly shown) [Compound 11] | A (percent of modification ≥70%) |  | 100 to 1000 nM |
| C=CC(=O)N1CC[C@@H](N(C)c2nc(OC[C@H]3C[C@@H](OC)CN3C)nc3c(F)c(-c4ccc(F)c5sc(N)c(C#N)c45)c(C(F)(F)F)cc23)[C@H]1C (single isomer, unassigned) [Compound 175] | D (percent of modification <10%) | 100 to 1000 nM |  |
| C=CC(=O)N1C2CC1CN(c1nc(OC[C@@]34CCCN3C[C@H](F)C4)nc3c(F)c(-c4ccc(F)c5sc(N)c(C#N)c45)c(C(F)(F)F)cc13)C2 [Compound 35] | C (10%≤percent of modification <50%) |  | < 100 nM |
| C=CC(=O)N1C[C@@H](C)N(c2nc(OC[C@@]34CCCN3C[C@H](F)C4)nc3c(F)c(-c4ccc(F)c5sc(N)c(C#N)c45)c(C(F)(F)F)cc23)C[C@@H]1C [Compound 124] | C (10%≤percent of modification <50%) |  | < 100 nM |
| C=CC(=O)N1CC[C@@H](N(C)c2nc(OC[C@@H]3CCCN3C)nc3c(F)c(-c4ccc(F)c5sc(N)c(C#N)c45)c(Cl)cc23)[C@H]1C (atropisomer, axis not shown) [Compound 118] | A (percent of modification ≥70%) | < 100 nM |  |
| C=CC(=O)N1CC[C@@H](N(CC)c2nc(OC[C@@H]3C[C@@H](F)CN3C)nc3c(F)c(-c4ccc(F)c5sc(N)c(C#N)c45)c(C(F)(F)F)cc23)[C@H]1C (atropisomer, axis not shown) [Compound 114] | D (percent of modification <10%) | > 1000 nM |  |
| C=CC(=O)N1CC[C@@H](N(C)c2nc(OC[C@@]34CCCN3C[C@H](F)C4)nc3cc(-c4ccc(F)c5sc(N)c(C#N)c45)c(C#N)cc23)[C@@H]1C [Compound 27] | A (percent of modification ≥70%) |  | < 100 nM |
| C=CC(=O)N1CC[C@@H](N(CC)c2nc(OC[C@@H]3CCCN3C)nc3cc(-c4ccc(F)c5sc(N)c(C#N)c45)c(F)cc23)[C@H]1C [Compound 138] | A (percent of modification ≥70%) |  | < 100 nM |
| C=CC(=O)N1CC[C@@H](N(CC)c2nc(OC[C@@H]3CCCN3C)nc3c(F)c(-c4ccc(F)c5sc(N)c(C#N)c45)ccc23)[C@H]1C [Compound 141] | A (percent of modification ≥70%) |  | < 100 nM |
| C=CC(=O)N1CC[C@@H](N(C)c2nc(OC[C@@H]3CCCN3C)nc3c(F)c(-c4ccc(F)c5sc(N)c(C#N)c45)c(C(F)(F)F)cc23)[C@H]1C (atropisomer, axis not shown) [Compound 132] | D (percent of modification <10%) | > 1000 nM |  |
| C=CC(=O)N1CC[C@@H](N(C)c2nc(OC[C@@H]3CC4(CC4)CN3C)nc3c(F)c(-c4ccc(F)c5sc(N)c(C#N)c45)c(C(F)(F)F)cc23)[C@@H]1C [Compound 112] | D (percent of modification <10%) | 100 to 1000 nM |  |
| C=CC(=O)N1CCC(N(C)c2nc(OC[C@@H]3CCCN3C)nc3c(F)c(-c4nc(N)cc(C)c4C(F)(F)F)c(Cl)cc23)[C@H]1C (stereo partly shown) [Compound 9] | C (10%≤percent of modification <50%) |  | 100 to 1000 nM |
| C=CC(=O)N1CC[C@@H](N(CC)c2nc(OC[C@@H]3C[C@@H](OC)CN3C)nc3c(F)c(-c4ccc(F)c5sc(N)c(C#N)c45)c(C(F)(F)F)cc23)[C@H]1C (single isomer, unassigned) [Compound 117] | D (percent of modification <10%) | > 1000 nM |  |

Other lines, results leading:

| GppNHp-KRAS G12C percent of modification [1] | IC50 [2] | IC50 ([2]; Homo sapiens, NCI-H358, 0.5 h) | Structure (SMILES) |
| --- | --- | --- | --- |
| A (percent of modification ≥70%) |  | < 100 nM | C=CC(=O)N1CCC(N(C)c2nc(OC[C@@]34CCCN3C[C@H](F)C4)nc3cc(-c4ccc(F)c5sc(N)c(C#N)c45)c(C#N)cc23)[C@H]1CC (stereo partly shown) [Compound 7] |
| A (percent of modification ≥70%) |  | < 100 nM | C=CC(=O)N1CC[C@@H](N(C)c2nc(OC[C@@H]3C[C@@H](OC)CN3CC)nc3c(F)c(-c4ccc(F)c5sc(N)c(C#N)c45)c(C(F)(F)F)cc23)[C@H]1C [Compound 104] |
| A (percent of modification ≥70%) |  | < 100 nM | C=CC(=O)N1CC[C@@H](N(CC)c2nc(OC[C@@]34CCCN3C[C@H](OC)C4)nc3cc(-c4ccc(F)c5sc(N)c(C#N)c45)c(F)cc23)[C@H]1C [Compound 149] |
| A (percent of modification ≥70%) |  | < 100 nM | C=CC(=O)N1CC[C@@H](N(C)c2nc(OC[C@@]34CCCN3C[C@H](F)C4)nc3cc(-c4ccc(F)c5sc(N)c(C#N)c45)c(F)cc23)[C@@H]1C [Compound 31] |
| C (10%≤percent of modification <50%) |  | < 100 nM | C=CC(=O)N1CCC(N(CC)c2nc(OC[C@@]34CCCN3C[C@H](F)C4)nc3c(F)c(-c4ccc(F)c5sc(N)c(C#N)c45)c(Cl)cc23)[C@H]1CC (stereo partly shown) [Compound 12] |
| A (percent of modification ≥70%) |  | < 100 nM | C=CC(=O)N1CC[C@@H](N(CC)c2nc(OC[C@@]34CCCN3C[C@H](OC)C4)nc3c(F)c(-c4ccc(F)c5sc(N)c(C#N)c45)c(C(F)(F)F)cc23)[C@H]1C [Compound 150] |
| A (percent of modification ≥70%) |  | < 100 nM | C=CC(=O)N1CC[C@@H](N(CC)c2nc(OC[C@@H]3C[C@@H](OC)CN3C)nc3cc(-c4ccc(F)c5sc(N)c(C#N)c45)c(F)cc23)[C@H]1C [Compound 140] |
| A (percent of modification ≥70%) |  | < 100 nM | C=CC(=O)N1CC[C@@H](N(CC)c2nc(OC[C@]34CCCN3C[C@H](OC)C4)nc3c(F)c(-c4ccc(F)c5sc(N)c(C#N)c45)c(Cl)cc23)[C@H]1C [Compound 164] |
| A (percent of modification ≥70%) |  | < 100 nM | C=CC(=O)N1CC[C@@H](N(CC)c2nc(OC[C@]34CCCN3C[C@H](F)C4)nc3c(F)c(-c4ccc(F)c5sc(N)c(C#N)c45)c(C(F)(F)F)cc23)[C@H]1C [Compound 159] |
| B (50≤percent of modification <70%) |  | < 100 nM | C=CC(=O)N1CCC(N(C)c2nc(OC[C@@]34CCCN3C[C@H](F)C4)nc3c(F)c(-c4nc(N)cc(C)c4C(F)(F)F)c(Cl)cc23)[C@H]1C (stereo partly shown) [Compound 10] |
| A (percent of modification ≥70%) |  | < 100 nM | C=CC(=O)N1CC[C@@H](N(CC)c2nc(OC[C@]34CCCN3C[C@H](F)C4)nc3c(F)c(-c4ccc(F)c5sc(N)c(C#N)c45)c(Cl)cc23)[C@H]1C [Compound 165] |
| A (percent of modification ≥70%) |  | < 100 nM | C=CC(=O)N1CC[C@@H](N(CC)c2nc(OC[C@@H]3C[C@@H](F)CN3C)nc3c(F)c(-c4ccc(F)c5sc(N)c(C#N)c45)ccc23)[C@H]1C [Compound 142] |
| A (percent of modification ≥70%) |  | < 100 nM | C=CC(=O)N1CC[C@@H](N(C)c2nc(OC[C@H]3C[C@@H](OC)CN3C)nc3c(F)c(-c4ccc(F)c5sc(N)c(C#N)c45)c(C(F)(F)F)cc23)[C@H]1C (single isomer, unassigned) [Compound 173] |
| A (percent of modification ≥70%) |  | < 100 nM | C=CC(=O)N1C[C@H](N(C)c2nc(OC[C@@]34CCCN3C[C@H](F)C4)nc3cc(-c4ccc(F)c5sc(N)c(C#N)c45)c(F)cc23)C[C@H]1C [Compound 148] |
| A (percent of modification ≥70%) |  | < 100 nM | C=CC(=O)N1CC[C@@H](N(CC)c2nc(OC[C@@]34CCCN3C[C@H](F)C4)nc3cc(-c4ccc(F)c5sc(N)c(C#N)c45)c(C#N)cc23)[C@H]1C [Compound 25] |
| A (percent of modification ≥70%) |  | < 100 nM | C=CC(=O)N1CC[C@@H](N(C)c2nc(OC[C@]34CCCN3C[C@H](OC)C4)nc3c(F)c(-c4ccc(F)c5sc(N)c(C#N)c45)c(C(F)(F)F)cc23)[C@H]1C [Compound 156] |
| A (percent of modification ≥70%) |  | < 100 nM | C=CC(=O)N1CC[C@@H](N(CC)c2nc(OC[C@@]34CCCN3C[C@H](F)C4)nc3c(F)c(-c4ccc(F)c5sc(N)c(C#N)c45)ccc23)[C@H]1C [Compound 17, 4-(4-(((2R,3R)-1-acryloyl-2-methylpyrrolidin-3-yl)(ethyl)amino)-8-fluoro-2-(((2R,7aS)-2-fluorotetrahydro-1H-pyrrolizin-7a(5H)-yl)methoxy)quinazolin-7-yl)-2-amino-7-fluorobenzo[b]thiophene-3-carbonitrile] |

From US20260232666A1, “COMPOSITIONS AND METHODS FOR INHIBITION OF RAS” (TheRas, Inc., priority 2023, published 2026)
